# Test results as given in ChEMBL document CHEMBL5053510, “Discovery of AS-1763: A Potent, Selective, Noncovalent, and Orally Available Inhibitor of Bruton's Tyrosine Kinase” (J Med Chem, 2021).
# Calls of active or inactive are those of the source. The calls are words filed in the database; no cut-off is given here.
# Tests used:
# [1] = Metabolic stability in rat hepatocytes assessed as Intrinsic clearance; format: ADME, cell-based, Hepatocyte
# [2] = biological target: Muscle, skeletal receptor tyrosine-protein kinase (Homo sapiens, UniProt O15146); assay: Inhibition of human MUSK expressed in baculovirus expression system by mobility shift assay
# [3] = biological target: Tyrosine-protein kinase Tec (Homo sapiens) (UniProt P42680); assay: Inhibition of human TEC (359- 631) expressed in baculovirus expression system at 0.3 uM by mobility shift assay
# Sequence of Tyrosine-protein kinase Tec (Homo sapiens) (P42680 whole entry): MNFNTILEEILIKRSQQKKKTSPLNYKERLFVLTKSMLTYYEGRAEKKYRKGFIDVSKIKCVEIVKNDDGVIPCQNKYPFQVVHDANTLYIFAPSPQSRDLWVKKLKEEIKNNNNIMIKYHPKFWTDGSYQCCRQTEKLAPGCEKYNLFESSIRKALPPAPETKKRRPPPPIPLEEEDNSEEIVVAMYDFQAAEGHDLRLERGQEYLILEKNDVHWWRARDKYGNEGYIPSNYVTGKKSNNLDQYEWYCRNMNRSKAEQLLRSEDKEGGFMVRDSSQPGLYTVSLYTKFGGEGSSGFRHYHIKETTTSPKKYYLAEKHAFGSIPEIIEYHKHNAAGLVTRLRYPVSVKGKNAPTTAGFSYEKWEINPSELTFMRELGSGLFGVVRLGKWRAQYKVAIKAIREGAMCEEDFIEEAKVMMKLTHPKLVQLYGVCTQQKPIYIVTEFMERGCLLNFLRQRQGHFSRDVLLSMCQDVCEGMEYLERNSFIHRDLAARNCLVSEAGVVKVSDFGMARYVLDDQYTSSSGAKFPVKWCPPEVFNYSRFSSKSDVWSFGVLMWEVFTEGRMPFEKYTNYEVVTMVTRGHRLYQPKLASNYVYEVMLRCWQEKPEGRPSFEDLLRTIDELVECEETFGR
# Cytochrome P450 2C9 = Cytochrome P450 2C9 (Homo sapiens, UniProt P11712); assay: Inhibition of CYP2C9 (unknown origin); format: ADME
# Sequence of Cytochrome P450 2C9 (P11712 whole entry): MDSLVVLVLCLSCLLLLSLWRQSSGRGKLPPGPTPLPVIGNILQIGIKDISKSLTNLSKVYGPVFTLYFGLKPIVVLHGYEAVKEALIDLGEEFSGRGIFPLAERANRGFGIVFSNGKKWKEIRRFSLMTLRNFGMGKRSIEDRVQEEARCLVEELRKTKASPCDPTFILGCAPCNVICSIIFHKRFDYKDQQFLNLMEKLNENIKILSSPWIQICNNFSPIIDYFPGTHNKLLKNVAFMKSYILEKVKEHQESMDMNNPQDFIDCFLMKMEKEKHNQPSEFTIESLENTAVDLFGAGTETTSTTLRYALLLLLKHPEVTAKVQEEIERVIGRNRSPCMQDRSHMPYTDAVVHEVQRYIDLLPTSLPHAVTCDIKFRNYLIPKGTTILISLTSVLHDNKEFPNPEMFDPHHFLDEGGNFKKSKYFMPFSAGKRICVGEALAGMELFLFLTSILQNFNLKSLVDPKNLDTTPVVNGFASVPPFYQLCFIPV
# [4] = Initial plasma concentration in mouse at 2 mg/kg, iv; format: ADME, organism-based
# Cytochrome P450 2D6 = Cytochrome P450 2D6 (Homo sapiens, UniProt P10635); assay: Inhibition of […] (unknown origin); format: ADME
# [5] = MRT (0 to last) in rat at 15 mg/kg, po; format: ADME, organism-based; conditions: in vivo
# OCI-Ly10 [6] = assay: Antitumor activity against human OCILY10 cells xenografted in SCID mouse assessed as tumor growth inhibition at 20 mg/kg, po bid measured after 63 days; format: functional; conditions: OCI-Ly10, 1512 h, time 63 day, read-out: TGI
# [7] = MRT (0 to last) in rat at 2 mg/kg, iv; format: ADME, organism-based; conditions: in vivo
# Mus musculus = organism: Mus musculus; assay: Toxicity in SCID mouse harboring human OCILY10 cells harboring BTK C481S mutant […] gene assessed as body weight loss; format: organism-based
# [8] = Clearence in mouse at 2 mg/kg, iv; format: ADME, organism-based; conditions: in vivo
# [9] = Metabolic stability in mouse hepatocytes assessed as Intrinsic clearance; format: ADME, cell-based, Hepatocyte
# [10] = Volume of distribution at steady state in mouse at 2 mg/kg, iv; format: ADME, organism-based; conditions: in vivo, read-out: Vdss
# [11] = Tmax in mouse at 15 mg/kg, po; format: ADME, organism-based; conditions: in vivo
# [12] = biological target: Tyrosine-protein kinase BTK (Mus musculus) (UniProt P35991); assay: Inhibition of BTK in […] mouse blood assessed as reduction in BTK phosphorylation at Tyr223 residue at 30 mg/kg, po measured after 8 hrs; format: organism-based
# Sequence of Tyrosine-protein kinase BTK (Mus musculus) (P35991 whole entry): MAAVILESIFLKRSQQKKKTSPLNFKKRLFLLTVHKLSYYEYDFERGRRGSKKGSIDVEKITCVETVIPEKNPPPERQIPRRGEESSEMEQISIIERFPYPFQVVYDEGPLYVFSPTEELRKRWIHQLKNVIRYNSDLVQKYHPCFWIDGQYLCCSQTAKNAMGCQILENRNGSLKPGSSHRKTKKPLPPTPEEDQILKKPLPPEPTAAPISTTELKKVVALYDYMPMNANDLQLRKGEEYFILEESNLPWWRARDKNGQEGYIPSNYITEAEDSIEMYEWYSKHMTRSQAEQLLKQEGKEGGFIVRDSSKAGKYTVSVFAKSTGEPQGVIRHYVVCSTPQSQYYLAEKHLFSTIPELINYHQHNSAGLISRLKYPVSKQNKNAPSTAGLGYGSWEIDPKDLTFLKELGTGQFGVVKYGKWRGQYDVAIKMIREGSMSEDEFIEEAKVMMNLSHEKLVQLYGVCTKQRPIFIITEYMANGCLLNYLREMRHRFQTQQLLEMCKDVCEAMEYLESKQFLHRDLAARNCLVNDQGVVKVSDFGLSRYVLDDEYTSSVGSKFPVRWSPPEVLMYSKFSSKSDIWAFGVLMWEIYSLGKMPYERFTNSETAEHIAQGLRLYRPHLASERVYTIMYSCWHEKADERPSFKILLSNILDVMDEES
# [13] = Volume of distribution at steady state in dog at 2 mg/kg, iv; format: ADME, organism-based, Canis lupus familiaris; conditions: in vivo, read-out: Vdss
# [14] = biological target: Voltage-gated inwardly rectifying potassium channel KCNH2 (Homo sapiens, UniProt Q12809); assay: Inhibition of human ERG
# Sequence of Voltage-gated inwardly rectifying potassium channel KCNH2 (Q12809 whole entry): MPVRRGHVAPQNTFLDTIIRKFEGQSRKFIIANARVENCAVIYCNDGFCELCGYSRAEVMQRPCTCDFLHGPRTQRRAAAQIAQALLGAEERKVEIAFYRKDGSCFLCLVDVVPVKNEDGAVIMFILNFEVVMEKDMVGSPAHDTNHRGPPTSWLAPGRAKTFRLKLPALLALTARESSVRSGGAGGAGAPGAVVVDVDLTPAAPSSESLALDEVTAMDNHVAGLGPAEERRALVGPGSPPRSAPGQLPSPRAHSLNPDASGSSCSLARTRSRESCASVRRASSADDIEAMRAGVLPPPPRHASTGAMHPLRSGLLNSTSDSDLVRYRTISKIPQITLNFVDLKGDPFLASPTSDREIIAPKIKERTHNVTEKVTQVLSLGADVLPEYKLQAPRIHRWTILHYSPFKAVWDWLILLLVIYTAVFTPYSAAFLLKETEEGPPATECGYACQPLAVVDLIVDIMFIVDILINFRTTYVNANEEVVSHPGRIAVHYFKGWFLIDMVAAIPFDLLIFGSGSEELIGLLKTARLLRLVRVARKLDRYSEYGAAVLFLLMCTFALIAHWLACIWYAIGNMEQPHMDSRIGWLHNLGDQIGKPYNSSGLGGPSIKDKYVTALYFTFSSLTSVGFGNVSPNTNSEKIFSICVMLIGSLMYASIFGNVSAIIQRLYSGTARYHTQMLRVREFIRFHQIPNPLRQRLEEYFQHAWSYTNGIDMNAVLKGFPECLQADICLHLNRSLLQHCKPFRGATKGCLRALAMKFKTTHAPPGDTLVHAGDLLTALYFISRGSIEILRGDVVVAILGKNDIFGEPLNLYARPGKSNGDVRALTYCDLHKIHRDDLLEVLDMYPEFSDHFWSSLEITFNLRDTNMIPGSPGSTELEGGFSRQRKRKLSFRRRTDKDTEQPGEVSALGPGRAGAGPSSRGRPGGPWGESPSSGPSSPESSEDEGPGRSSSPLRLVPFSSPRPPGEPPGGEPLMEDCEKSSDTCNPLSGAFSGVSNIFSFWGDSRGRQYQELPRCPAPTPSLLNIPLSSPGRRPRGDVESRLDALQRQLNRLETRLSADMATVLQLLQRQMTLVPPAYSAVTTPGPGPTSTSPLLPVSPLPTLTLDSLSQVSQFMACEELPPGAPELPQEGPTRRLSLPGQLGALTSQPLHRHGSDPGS
# [15] = Plasma protein binding in rat; format: ADME, cell-free; conditions: read-out: PPB (converted)
# OCI-Ly10 [16] = assay: Antiproliferative activity against human OCILY10 cells harboring BTK C481S mutant […] gene assessed as reduction in cell viability after 96 hrs; format: functional, cell-based; conditions: OCI-Ly10, 96 h
# [17] = biological target: Tyrosine-protein kinase ITK/TSK (Homo sapiens) (UniProt Q08881); assay: Inhibition of human ITK (2 - 620 residues) expressed in baculovirus expression system at 0.3 uM by mobility shift assay
# Sequence of Tyrosine-protein kinase ITK/TSK (Homo sapiens) (Q08881 whole entry, the tested form may be a part): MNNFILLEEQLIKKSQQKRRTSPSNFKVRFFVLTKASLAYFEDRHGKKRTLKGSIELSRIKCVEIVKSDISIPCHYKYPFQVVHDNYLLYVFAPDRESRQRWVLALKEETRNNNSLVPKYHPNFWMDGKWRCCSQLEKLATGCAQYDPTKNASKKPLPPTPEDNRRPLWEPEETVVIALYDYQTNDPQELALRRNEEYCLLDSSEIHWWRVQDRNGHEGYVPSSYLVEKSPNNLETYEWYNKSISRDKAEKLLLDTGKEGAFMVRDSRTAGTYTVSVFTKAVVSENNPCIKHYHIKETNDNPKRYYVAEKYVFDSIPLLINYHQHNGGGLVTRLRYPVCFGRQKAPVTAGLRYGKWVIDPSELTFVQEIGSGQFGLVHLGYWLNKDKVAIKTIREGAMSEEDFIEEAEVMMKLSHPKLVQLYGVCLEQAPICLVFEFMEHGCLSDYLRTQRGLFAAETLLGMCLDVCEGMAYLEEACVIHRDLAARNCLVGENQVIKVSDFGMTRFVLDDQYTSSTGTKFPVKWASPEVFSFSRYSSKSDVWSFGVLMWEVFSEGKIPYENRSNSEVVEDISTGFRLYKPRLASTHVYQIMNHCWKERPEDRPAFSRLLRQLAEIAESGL
# [18] = biological target: Epithelial discoidin domain-containing receptor 1 (Homo sapiens, UniProt Q08345); assay: Inhibition of human DDR1 (444 - 876 residues) expressed in baculovirus expression system by mobility shift assay
# Sequence of Epithelial discoidin domain-containing receptor 1 (Q08345 whole entry, the tested form may be a part): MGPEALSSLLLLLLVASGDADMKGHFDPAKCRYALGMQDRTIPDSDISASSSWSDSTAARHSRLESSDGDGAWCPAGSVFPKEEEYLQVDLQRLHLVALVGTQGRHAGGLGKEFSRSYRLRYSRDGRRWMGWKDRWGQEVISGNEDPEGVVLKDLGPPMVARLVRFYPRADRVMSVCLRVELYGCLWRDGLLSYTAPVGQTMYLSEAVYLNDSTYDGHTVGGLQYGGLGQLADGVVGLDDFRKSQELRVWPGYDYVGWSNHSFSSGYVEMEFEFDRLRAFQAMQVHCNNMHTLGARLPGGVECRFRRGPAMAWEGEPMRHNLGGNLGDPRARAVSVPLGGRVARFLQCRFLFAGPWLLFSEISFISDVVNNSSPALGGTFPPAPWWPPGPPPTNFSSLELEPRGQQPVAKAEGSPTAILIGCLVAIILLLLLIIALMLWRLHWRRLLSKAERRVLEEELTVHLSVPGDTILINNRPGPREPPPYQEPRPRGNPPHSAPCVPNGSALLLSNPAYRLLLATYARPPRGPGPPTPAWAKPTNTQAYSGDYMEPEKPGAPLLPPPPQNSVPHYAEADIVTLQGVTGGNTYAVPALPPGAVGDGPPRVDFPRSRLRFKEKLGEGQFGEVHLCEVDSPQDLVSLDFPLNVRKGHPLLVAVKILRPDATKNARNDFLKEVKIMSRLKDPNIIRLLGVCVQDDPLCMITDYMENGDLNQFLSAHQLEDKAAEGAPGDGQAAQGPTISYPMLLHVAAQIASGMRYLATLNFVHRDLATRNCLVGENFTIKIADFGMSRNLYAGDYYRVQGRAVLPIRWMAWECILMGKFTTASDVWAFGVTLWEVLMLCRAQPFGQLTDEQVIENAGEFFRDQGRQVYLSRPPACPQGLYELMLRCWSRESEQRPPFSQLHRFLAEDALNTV
# [19] = Half life in dog at 5 mg/kg, po; format: ADME, organism-based, Canis lupus familiaris; conditions: in vivo
# OCI-Ly10 [20] = assay: Antiproliferative activity against human OCILY10 cells assessed as reduction in cell proliferation measured after 96 hrs; format: functional, cell-based; conditions: OCI-Ly10, 96 h
# OCI-Ly10 [21] = assay: Antitumor activity against human ibrutinib-resistant BTK[C481S] knock-in OCILY10 cells in SCID mouse assessed as tumor growth inhibition at 60 mg/kg, po bid measured after 63 days; format: functional; conditions: OCI-Ly10, 1512 h, time 63 day, read-out: TGI
# [22] = Metabolic stability in dog hepatocytes assessed as Intrinsic clearance; format: ADME, cell-based, Canis lupus familiaris, Hepatocyte
# Cytochrome P450 2C19 = Cytochrome P450 2C19 (Homo sapiens, UniProt P33261); assay: Inhibition of CYP2C19 (unknown origin); format: ADME
# Sequence of Cytochrome P450 2C19 (P33261 whole entry): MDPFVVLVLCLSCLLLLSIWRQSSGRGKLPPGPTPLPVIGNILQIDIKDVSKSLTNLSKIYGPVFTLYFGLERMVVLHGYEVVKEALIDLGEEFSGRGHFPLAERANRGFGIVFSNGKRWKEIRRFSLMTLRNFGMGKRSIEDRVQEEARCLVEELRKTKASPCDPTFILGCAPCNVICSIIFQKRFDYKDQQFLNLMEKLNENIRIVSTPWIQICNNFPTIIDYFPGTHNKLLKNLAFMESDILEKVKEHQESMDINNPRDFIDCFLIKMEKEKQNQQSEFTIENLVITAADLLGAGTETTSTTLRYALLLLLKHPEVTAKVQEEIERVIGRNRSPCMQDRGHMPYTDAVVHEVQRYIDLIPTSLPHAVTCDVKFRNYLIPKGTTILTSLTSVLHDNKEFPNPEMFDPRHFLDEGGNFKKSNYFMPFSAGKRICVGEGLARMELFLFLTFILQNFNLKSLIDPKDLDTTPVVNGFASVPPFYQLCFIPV
# [23] = Plasma protein binding in mouse; format: ADME, cell-free; conditions: read-out: PPB (converted)
# [24] = Tmax in dog at 5 mg/kg, po; format: ADME, organism-based, Canis lupus familiaris; conditions: in vivo
# [25] = MRT (0 to last) in mouse at 15 mg/kg, po; format: ADME, organism-based; conditions: in vivo
# [26] = Half life in rat at 15 mg/kg, po; format: ADME, organism-based; conditions: in vivo
# [27] = AUC (0 to last) in mouse at 2 mg/kg, iv; format: ADME, organism-based; parameters: time 0 - last, dose 2 mg/kg, route iv; conditions: in vivo
# [28] = biological target: Tyrosine-protein kinase BTK (Mus musculus) (UniProt P35991); assay: Inhibition of BTK in […] mouse blood assessed as reduction in BTK phosphorylation at Tyr223 residue at 15 mg/kg, po measured after 8 hrs; format: organism-based
# [29] = MRT (0 to last) in dog at 1 mg/kg, iv; format: ADME, organism-based, Canis lupus familiaris; conditions: in vivo
# [30] = Clearence in rat at 2 mg/kg, iv; format: ADME, organism-based; conditions: in vivo
# [31] = Metabolic stability in human hepatocytes assessed as Intrinsic clearance; format: ADME, cell-based, Hepatocyte
# [32] = Oral bioavailability in mouse at 15 mg/kg; format: ADME, organism-based; conditions: in vivo
# [33] = Oral bioavailability in rat at 15 mg/kg; format: ADME, organism-based; conditions: in vivo
# [34] = biological target: Tyrosine-protein kinase Tec (Homo sapiens, UniProt P42680); assay: Inhibition of human TEC (359 - 631 residues) expressed in baculovirus expression system by mobility shift assay
# Sequence of Tyrosine-protein kinase Tec (P42680 whole entry, the tested form may be a part): as the sequence (P42680 whole entry) above
# [35] = biological target: Tyrosine-protein kinase ITK/TSK (Homo sapiens, UniProt Q08881); assay: Inhibition of human ITK (2 - 620 residues) expressed in baculovirus expression system by mobility shift assay
# Sequence of Tyrosine-protein kinase ITK/TSK (Q08881 whole entry, the tested form may be a part): as the sequence (Q08881 whole entry, the tested form may be a part) above
# [36] = Tmax in rat at 15 mg/kg, po; format: ADME, organism-based; conditions: in vivo
# [37] = Oral bioavailability in dog at 5 mg/kg; format: ADME, organism-based, Canis lupus familiaris; conditions: in vivo
smiles,measurement,setting,value
Nc1nc(-c2cccc(-n3ccc4cc(C5CC5)cc(F)c4c3=O)c2CO)c2cc(C3=CCN(C4COC4)CC3)[nH]c2n1 [MILREBRUTINIB],CLH,[1],2.04 mL/min/g
same,IC50,[2],306 nM
same,inhibition,[3],99.6%
same,IC50,Cytochrome P450 2C9,5380 nM
same,C0,[4],972 ng/mL
same,IC50,Cytochrome P450 2D6,> 10000 nM
same,MRT last,[5],4.03 h
same,inhibition in vivo at 20 mg/kg,OCI-Ly10 [6],81.6%
same,MRT last,[7],2.92 h
same,Activity,Mus musculus,Non-Toxic
same,clearance,[8],18.8 mL/min/kg
same,CLH,[9],2.11 mL/min/g
same,Vd,[10],1.61 L/kg
same,Tmax,[11],2 h
same,inhibition,[12],Active
same,Vd,[13],1.77 L/kg
same,IC50,[14],8540 nM
same,fraction unbound,[15],0.012
same,IC50,OCI-Ly10 [16],20.4 nM
same,inhibition,[17],78.8%
same,IC50,[18],221 nM
same,half-life,[19],1.9 h
same,IC50,OCI-Ly10 [20],2 nM
same,inhibition in vivo at 60 mg/kg,OCI-Ly10 [21],73%
same,CLH,[22],1.28 mL/min/g
same,IC50,Cytochrome P450 2C19,> 10000 nM
same,fraction unbound,[23],0.008
same,Tmax,[24],0.833 h
same,MRT last,[25],3.58 h
same,half-life,[26],3.56 h
same,AUC(0-t),[27],1750 ng·h/mL
same,inhibition,[28],Active
same,MRT last,[29],1.23 h
same,clearance,[30],20.3 mL/min/kg
same,CLH,[31],0.76 mL/min/g
same,bioavailability,[32],60.8%
same,bioavailability,[33],15.9%
same,IC50,[34],1.34 nM
same,IC50,[35],60.9 nM
same,Tmax,[36],2 h
same,bioavailability,[37],68.1%
